Data as given in US20240271088A1, “METHOD FOR MAINTAINING AND AMPLIFYING HUMAN PRIMORDIAL GERM CELLS / HUMAN PRIMORDIAL GERM CELL-LIKE CELLS” (KYOTO UNIVERSITY, priority 2020, published 2024).

Assays:
[1] = tested on: 585B1-868BTAG iPSC-derived PGCLCs; experiment: hPGCLC maintenance and expansion culture with added Wnt signal transduction inhibitors; growth curve and enrichment score by FACS; type: cell-based, human; conditions: control DMSO
Text: FIG. 14A A drawing showing the suppressive effect of Wnt signal transduction inhibitor on PGCLC dedifferentiation. […] Growth curve of BTAG double-positive cells under each condition in 30 day culture (n=3). The average values of the three experiments were plotted and connected with a straight line. The number after the lowercase letter “c” indicates the number of days of culture.
FIG. 14B A drawing showing the suppressive effect of Wnt signal transduction inhibitor on PGCLC dedifferentiation. […] Enrichment score (n=3) under each condition at C10, C20 and C30. The average values were plotted with red diamonds. Using the DMSO-added group as a control group, a multiple comparison test was performed by Dunnet method. *:p<0.1, **:p<0.05 […]
Further detailed analysis of the FACS analysis results of 585B1-868BTAG (BLIMP1-tdTomato and AP2γ-EGFP) iPS cell-derived proliferated human PGCLC was performed. In the FACS analysis, the expression of the human cell-specific cell surface antigen TRA-1-85 in the population excluding dead cells by DRAQ7 staining was analyzed. […]
Proliferation culture was performed using 585B1-868BTAG iPSC-derived PGCLCs on day 6 of differentiation induction. […] Cells were passaged and counted by FACS every 10 days to draw a proliferation curve. In addition, an enrichment score was calculated at respective culture day numbers.

[2] = tested on: BT+AG+ hPGCLC (d6 hPGCLCs from 585B1 BTAG hiPSC); experiment: hPGCLC expansion culture on m220 feeders with combinations of chemical substances and cytokines; BT+AG+ cells counted by FACS; type: cell-based, human; conditions: 10 days of culture, GMEM, 15% KSR, 2.5% FBS, 100 ng/ml SCF, forskolin 10 μM, rolipram 10 μM, cyclosporin A 5 μM, LIF 10 ng/ml, EGF 50 ng/ml, bFGF 20 ng/ml
Experimental: FIG. 1B Exploration of conditions for expanding hPGCLC in vitro. (B) (Left) Scheme for exploration of conditions for BT^+AG^+ cell proliferation. (Right) Plot showing the number of BT^+AG^+ cells after 10 days of culture under the indicated conditions determined by FACS analysis. (Blue) Combination of chemical substances [forskolin (10 μM), rolipram (10 μM), and cyclosporin A (5 μM)] used for BT^+AG^+ cell proliferation. (Yellow) Combination of cytokines [LIF (10 ng/ml), EGF (50 ng/ml), and basic fibroblast growth factor (bFGF: 20 ng/ml)] used for BT^+AG^+ cell proliferation. About 5000 hPGCLCs were used as the starting cell population. […] Conditions for mPGCLC expansion: green. Conditions without additional chemical substance/cytokine: gray.
In order to examine the influence of cytokine and/or chemical substances on hPGCLC proliferation, hPGCLC was treated with MMC in GK15 containing 2.5% FBS and 100 ng/mL SCF, and supplemented with cytokine and/or chemical substances [10 ng/mL LIF; 50 ng/mL EGF; 20 ng/mL bFGF; 10 μM forskolin; 10 μM rolipram; 5 μM cyclosporin A (SIGMA, 30024)], and the cells were passaged every 10 days [see the section of Fluorescence activated cell sorting]. On the day of passage, about 5.0×10^3 cells were plated on 24-well plates (0.5 mL of medium containing 10 μM Y27632), and 0.5 mL of medium free of Y27632 was 0.5 mL added the next day. […]

Row | Compound | appearance of dedifferentiated cells (enrichment score) ([1]; c10, c20, c30, IWR1 at various concentrations, inhibitor comparison at 2.5 μM) | effect on hPGCLC proliferation (growth curve of BTAG double-positive cells) ([1]; various concentrations added to maintenance and expansion medium, 30 days of culture, n=3) | effect on expansion of the number of BT+AG+ cells [2]
1 | O=C(Nc1cccc2cccnc12)c1ccc(N2C(=O)[C@@H]3[C@H](C2=O)[C@@H]2C=C[C@H]3C2)cc1 [IWR1] | significantly suppressed | no effect | –
2 | FGF: basic fibroblast growth factor, 20 ng/ml | – | – | positive effect
